Tested on: not listed separately
Test: logP determination by HPLC on a reversed-phase column (C18), EEC Directive 79/831 Annex V.A8
Assay type: physicochemical
Details: HPLC-MS, reversed-phase column (C18)

SMILES	log P
CN(C(=O)c1cc(-c2cnn(-c3c(Cl)cc(C(F)(C(F)(F)F)C(F)(F)F)cc3C(F)(F)F)c2)cnc1Cl)C1(C#N)CC1 [I-T3-116]	4.3
Cc1ncc(-c2cnn(-c3c(Cl)cc(C(F)(C(F)(F)F)C(F)(F)F)cc3C(F)(F)F)c2)cc1C(=O)NC1CC1 [I-T3-124]	3.5
Cc1ncc(-c2cnn(-c3c(Cl)cc(C(F)(C(F)(F)F)C(F)(F)F)cc3C(F)(F)F)c2)cc1C(=O)N(C)C1(C#N)CC1 [I-T3-131]	3.9
Cc1cc(C(F)(C(F)(F)F)C(F)(F)F)cc(I)c1-n1cc(-c2ccc(Cl)c(C(=O)NC3CC3)c2)cn1 [I-T3-175]	4.5
Cc1cc(C(F)(C(F)(F)F)C(F)(F)F)cc(I)c1-n1cc(-c2ccc(Cl)c(C(=O)NC3(C#N)CC3)c2)cn1 [I-T3-176]	4.4

Tested on: Rhipicephalus sanguineus
Test: Rhipicephalus sanguineus - in vitro contact tests with adult brown dog ticks
Assay type: in vivo
Details: application rate 5 μg/cm^2, after 48 h (dead or moribund)
Description: Rhipicephalus sanguineus—In Vitro Contact Tests with Adult Brown Dog Ticks
(§1) For the coating of the test tubes, 9 mg of active ingredient are first dissolved in 1 ml of acetone p.a. and then diluted to the desired concentration with acetone p.a. 250 μl of the solution are distributed homogeneously on the inner walls and base of a 25 ml test tube by turning and rocking on an orbital shaker (rocking rotation at 30 rpm for 2 h). With 900 ppm active ingredient solution and internal surface 44.7 cm^2, given homogeneous distribution, an area-based dose of 5 μg/cm^2 is achieved.
After the solvent has evaporated off, the tubes are populated with 5-10 adult dog ticks (Rhipicephalus sanguineus), sealed with a perforated plastic lid and incubated in a horizontal position in the dark at room temperature and ambient humidity. After 48 h, efficacy is determined. To this end, the ticks are knocked to the floor of the tube and incubated on a hotplate at 45-50° C. for not more than 5 min. Ticks which remain motionless on the floor or move in such an uncoordinated manner that they are unable to deliberately avoid the heat by climbing upwards are considered to be dead or moribund.
An efficacy of 100% means that all the ticks were dead or moribund. 0% efficacy means that none of the ticks had been harmed.

SMILES	efficacy
Cc1cc(C(F)(C(F)(F)F)C(F)(F)F)cc(I)c1-n1cc(-c2ccc(Cl)c(C(=O)NC3CC3)c2)cn1 [I-T3-175]	100%
Cc1cc(C(F)(C(F)(F)F)C(F)(F)F)cc(I)c1-n1cc(-c2ccc(Cl)c(C(=O)NC3(C#N)CC3)c2)cn1 [I-T3-176]	100%

Tested on: Ctenocephalides felis
Test: Ctenocephalides felis - in vitro contact tests with adult cat fleas
Assay type: in vivo
Details: application rate 5 μg/cm^2 (=500 g/ha), after 48 h (dead or moribund)
Description: Ctenocephalides felis—In Vitro Contact Tests with Adult Cat Fleas
as §1, with “surface area” for “surface”
After the solvent has evaporated off, the tubes are populated with 5-10 adult cat fleas (Ctenocephalides felis), sealed with a perforated plastic lid and incubated in a horizontal position at room temperature and ambient humidity. After 48 h, efficacy is determined. To this end, the test tubes are stood upright and the fleas are knocked to the base of the tube. Fleas which remain motionless at the base or move in an uncoordinated manner are considered to be dead or moribund.
100% efficacy means that all the fleas were dead or moribund. 0% efficacy means that no fleas were harmed.

SMILES	efficacy
CN(C(=O)c1cc(-c2cnn(-c3c(Cl)cc(C(F)(C(F)(F)F)C(F)(F)F)cc3C(F)(F)F)c2)cnc1Cl)C1(C#N)CC1 [I-T3-116]	100%
Cc1ncc(-c2cnn(-c3c(Cl)cc(C(F)(C(F)(F)F)C(F)(F)F)cc3C(F)(F)F)c2)cc1C(=O)NC1CC1 [I-T3-124]	100%
Cc1ncc(-c2cnn(-c3c(Cl)cc(C(F)(C(F)(F)F)C(F)(F)F)cc3C(F)(F)F)c2)cc1C(=O)N(C)C1(C#N)CC1 [I-T3-131]	100%
Cc1cc(C(F)(C(F)(F)F)C(F)(F)F)cc(I)c1-n1cc(-c2ccc(Cl)c(C(=O)NC3CC3)c2)cn1 [I-T3-175]	100%
Cc1cc(C(F)(C(F)(F)F)C(F)(F)F)cc(I)c1-n1cc(-c2ccc(Cl)c(C(=O)NC3(C#N)CC3)c2)cn1 [I-T3-176]	100%

Tested on: Amblyomma hebraeum
Test: Amblyomma hebraeum test (tick nymphs, immersion)
Assay type: in vivo
Details: application rate 100 ppm; tick nymphs immersed for one minute; kill after 42 days
Description: (§2) Solvent: dimethyl sulphoxide
To produce an appropriate active ingredient formulation, 10 mg of active ingredient are mixed with 0.5 ml of dimethyl sulphoxide, and the concentrate is diluted with water to the desired concentration.
Tick nymphs (Amblyomma hebraeum) are placed into perforated plastic beakers and immersed in the desired concentration for one minute. The ticks are transferred on filter paper into a Petri dish and stored in a climate-controlled cabinet.
After 42 days, the kill in % is determined. 100% means that all of the ticks have been killed; 0% means that none of the ticks have been killed.

SMILES	efficacy
CN(C(=O)c1cc(-c2cnn(-c3c(Cl)cc(C(F)(C(F)(F)F)C(F)(F)F)cc3C(F)(F)F)c2)cnc1Cl)C1(C#N)CC1 [I-T3-116]	100%
Cc1ncc(-c2cnn(-c3c(Cl)cc(C(F)(C(F)(F)F)C(F)(F)F)cc3C(F)(F)F)c2)cc1C(=O)NC1CC1 [I-T3-124]	100%
Cc1ncc(-c2cnn(-c3c(Cl)cc(C(F)(C(F)(F)F)C(F)(F)F)cc3C(F)(F)F)c2)cc1C(=O)N(C)C1(C#N)CC1 [I-T3-131]	100%

Tested on: Boophilus microplus
Test: Boophilus microplus - injection test
Assay type: in vivo
Details: application rate 20 μg/animal; injected into engorged adult female ticks; laying of fertile eggs, after 7 days
In short: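 Compound dissolved in DMSO (10 mg per 0.5 ml, then diluted with DMSO to test concentration); 1 μl injected into the abdomen of 5 engorged adult female ticks, which are then held in a climate-controlled room. Efficacy judged after 7 days by laying of fertile eggs.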

SMILES	efficacy
CN(C(=O)c1cc(-c2cnn(-c3c(Cl)cc(C(F)(C(F)(F)F)C(F)(F)F)cc3C(F)(F)F)c2)cnc1Cl)C1(C#N)CC1 [I-T3-116]	100%
Cc1ncc(-c2cnn(-c3c(Cl)cc(C(F)(C(F)(F)F)C(F)(F)F)cc3C(F)(F)F)c2)cc1C(=O)NC1CC1 [I-T3-124]	100%
Cc1ncc(-c2cnn(-c3c(Cl)cc(C(F)(C(F)(F)F)C(F)(F)F)cc3C(F)(F)F)c2)cc1C(=O)N(C)C1(C#N)CC1 [I-T3-131]	100%
Cc1cc(C(F)(C(F)(F)F)C(F)(F)F)cc(I)c1-n1cc(-c2ccc(Cl)c(C(=O)NC3CC3)c2)cn1 [I-T3-175]	100%
Cc1cc(C(F)(C(F)(F)F)C(F)(F)F)cc(I)c1-n1cc(-c2ccc(Cl)c(C(=O)NC3(C#N)CC3)c2)cn1 [I-T3-176]	100%

Tested on: Boophilus microplus Parkhurst strain, SP-resistant
Test: Boophilus microplus - dip test
Assay type: in vivo
Details: application rate 100 ppm; dip of engorged adult female ticks; laying of fertile eggs, after 7 days
Description: Boophilus microplus—Dip Test
Test animals: cattle ticks (Boophilus microplus) Parkhurst strain, SP-resistant
as §2
10 mg of active ingredient are dissolved in 0.5 ml of dimethyl sulphoxide. For the purpose of producing a suitable formulation, the active ingredient solution is diluted with water to the concentration desired in each case.
This active ingredient formulation is pipetted into tubes. 8-10 adult engorged female cattle ticks (Boophilus microplus) are transferred into a further tube with holes. The tube is immersed into the active ingredient formulation, and all the ticks are completely wetted. After the liquid has run out, the ticks are transferred on filter discs into plastic dishes and stored in a climate-controlled room.
Efficacy is assessed after 7 days by laying of fertile eggs. Eggs which are not visibly fertile are stored in a climate-controlled cabinet until the larvae hatch after about 42 days. An efficacy of 100% means that none of the ticks has laid any fertile eggs; 0% means that all the eggs are fertile.

SMILES	efficacy
CN(C(=O)c1cc(-c2cnn(-c3c(Cl)cc(C(F)(C(F)(F)F)C(F)(F)F)cc3C(F)(F)F)c2)cnc1Cl)C1(C#N)CC1 [I-T3-116]	100%
Cc1ncc(-c2cnn(-c3c(Cl)cc(C(F)(C(F)(F)F)C(F)(F)F)cc3C(F)(F)F)c2)cc1C(=O)NC1CC1 [I-T3-124]	100%
Cc1ncc(-c2cnn(-c3c(Cl)cc(C(F)(C(F)(F)F)C(F)(F)F)cc3C(F)(F)F)c2)cc1C(=O)N(C)C1(C#N)CC1 [I-T3-131]	100%
Cc1cc(C(F)(C(F)(F)F)C(F)(F)F)cc(I)c1-n1cc(-c2ccc(Cl)c(C(=O)NC3CC3)c2)cn1 [I-T3-175]	100%
Cc1cc(C(F)(C(F)(F)F)C(F)(F)F)cc(I)c1-n1cc(-c2ccc(Cl)c(C(=O)NC3(C#N)CC3)c2)cn1 [I-T3-176]	100%

Tested on: Ctenocephalides felis
Test: Ctenocephalides felis - oral test
Assay type: in vivo
Details: application rate 100 ppm in citrated cattle blood; adult fleas; kill after 2 days
In short: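 Oral exposure of unfed adult fleas, roughly 20 per chamber, to compound-spiked citrated cattle blood taken up across a parafilm membrane. Read-out is percent kill at 2 days, where 100% means every flea dead.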

SMILES	efficacy
CN(C(=O)c1cc(-c2cnn(-c3c(Cl)cc(C(F)(C(F)(F)F)C(F)(F)F)cc3C(F)(F)F)c2)cnc1Cl)C1(C#N)CC1 [I-T3-116]	100%
Cc1ncc(-c2cnn(-c3c(Cl)cc(C(F)(C(F)(F)F)C(F)(F)F)cc3C(F)(F)F)c2)cc1C(=O)NC1CC1 [I-T3-124]	100%
Cc1ncc(-c2cnn(-c3c(Cl)cc(C(F)(C(F)(F)F)C(F)(F)F)cc3C(F)(F)F)c2)cc1C(=O)N(C)C1(C#N)CC1 [I-T3-131]	100%
Cc1cc(C(F)(C(F)(F)F)C(F)(F)F)cc(I)c1-n1cc(-c2ccc(Cl)c(C(=O)NC3CC3)c2)cn1 [I-T3-175]	100%
Cc1cc(C(F)(C(F)(F)F)C(F)(F)F)cc(I)c1-n1cc(-c2ccc(Cl)c(C(=O)NC3(C#N)CC3)c2)cn1 [I-T3-176]	100%

Tested on: Lucilia cuprina
Test: Lucilia cuprina test
Assay type: in vivo
Details: application rate 100 ppm; L1 larvae in minced horsemeat; kill after 2 days
In short: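 About 20 L1 larvae placed on minced horsemeat treated with compound, formulated in DMSO and diluted with water to test concentration. Kill in % scored after 2 days (100% = all larvae dead, 0% = none).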

SMILES	efficacy
CN(C(=O)c1cc(-c2cnn(-c3c(Cl)cc(C(F)(C(F)(F)F)C(F)(F)F)cc3C(F)(F)F)c2)cnc1Cl)C1(C#N)CC1 [I-T3-116]	100%
Cc1ncc(-c2cnn(-c3c(Cl)cc(C(F)(C(F)(F)F)C(F)(F)F)cc3C(F)(F)F)c2)cc1C(=O)NC1CC1 [I-T3-124]	100%
Cc1ncc(-c2cnn(-c3c(Cl)cc(C(F)(C(F)(F)F)C(F)(F)F)cc3C(F)(F)F)c2)cc1C(=O)N(C)C1(C#N)CC1 [I-T3-131]	100%
Cc1cc(C(F)(C(F)(F)F)C(F)(F)F)cc(I)c1-n1cc(-c2ccc(Cl)c(C(=O)NC3CC3)c2)cn1 [I-T3-175]	100%
Cc1cc(C(F)(C(F)(F)F)C(F)(F)F)cc(I)c1-n1cc(-c2ccc(Cl)c(C(=O)NC3(C#N)CC3)c2)cn1 [I-T3-176]	100%

Tested on: Musca domestica
Test: Musca domestica test
Assay type: in vivo
Details: application rate 100 ppm; adult houseflies; kill after 2 days
In short: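 Feeding exposure: adult Musca domestica, 10 per vessel, given a sponge with sugar solution and test formulation at the desired concentration; % mortality determined on day 2.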

SMILES	efficacy
CN(C(=O)c1cc(-c2cnn(-c3c(Cl)cc(C(F)(C(F)(F)F)C(F)(F)F)cc3C(F)(F)F)c2)cnc1Cl)C1(C#N)CC1 [I-T3-116]	100%
Cc1ncc(-c2cnn(-c3c(Cl)cc(C(F)(C(F)(F)F)C(F)(F)F)cc3C(F)(F)F)c2)cc1C(=O)NC1CC1 [I-T3-124]	100%
Cc1ncc(-c2cnn(-c3c(Cl)cc(C(F)(C(F)(F)F)C(F)(F)F)cc3C(F)(F)F)c2)cc1C(=O)N(C)C1(C#N)CC1 [I-T3-131]	100%
Cc1cc(C(F)(C(F)(F)F)C(F)(F)F)cc(I)c1-n1cc(-c2ccc(Cl)c(C(=O)NC3CC3)c2)cn1 [I-T3-175]	100%
Cc1cc(C(F)(C(F)(F)F)C(F)(F)F)cc(I)c1-n1cc(-c2ccc(Cl)c(C(=O)NC3(C#N)CC3)c2)cn1 [I-T3-176]	100%
